{
  "source": "paper PMC11901700",
  "about": "“A Sweet Almond Globulin Multifunctional Peptide: Identification, In Silico Screening, Restraint Mechanisms to Keap1 and ACE, and Antihypertensive and Ferrous Transport Efficiency” (Nutrients, 2025)",
  "key": {"ABTS+ quenching ability": {"assay": "ABTS+ quenching ability", "type": "physicochemical", "conditions": "at 100 μg/mL; absorbance at 734 nm; mean ± standard error", "method": "The ABTS^+ quenching ability was determined following the same procedures described by Vásquez et al.. The same system without the sample was the control, and glutathione (0.1 mg/mL) was the comparison. The percentage of reduction in absorbance at 734 nm was defined as the ABTS^+ scavenging ability of samples."}, "[1]": {"assay": "Reducing power (potassium ferricyanide method)", "type": "physicochemical", "conditions": "at 100 μg/mL, absorbance at 700 nm", "source_text": "The potassium ferricyanide method was employed to determine the reducing power of the SAGH peptides at the same conditions reported by Wang et al., where the absorbance at 700 nm represented the reducing power."}, "[2]": {"system": "spontaneously hypertensive rats (SHRs)", "assay": "Effects on blood pressures of spontaneously hypertensive rats", "type": "in vivo, rat", "method": "Spontaneously hypertensive rats (SHRs, each weighting approximately 250 g, 14 weeks old) were obtained from Vitonglihua Test Animal Biotech. Co., Ltd. (Beijing, China) and used to investigate the hypotensive ability of ACE inhibitory and antioxidant SAGH peptides. After 7 days of adaptation, the SHRs were assigned to the blank, positive, SAGH peptides, and SAGH peptide–ferrous chelate groups (each group contained six SHRs), which were orally administered NaCl ([…]), captopril (14 mg per body weight kg), peptides (50, 150, and 200 mg per body weight kg), and peptide–ferrous chelates (50, 150, and 200 mg per body weight kg) every day, respectively. At 0, 120, 360, and 600 min after oral administration, the systolic and diastolic blood pressures and heart rates of the SHRs were measured using a NIBP-M1 Rat-tail noninvasive blood pressure monitor (Yuyan Scientific Instrument Co., Ltd., Shanghai, China) following the tail cuff method."}},
  "note": "Where no end group is shown, it is not given here.",
  "data": [
    {"substance": "PMYGGGMV–ferrous chelate: chelate prepared by reacting the peptide with FeCl2 at pH 6.5 (also: ferrous iron chelate (reaction with FeCl2))", "values": [
      {"measurement": "ABTS+ Scavenging Activity (%) Before Gastrointestinal Digestion", "setting": "ABTS+ quenching ability", "value": "35.27 ± 2.45", "unit": "d %"},
      {"measurement": "Reducing Power Before Gastrointestinal Digestion", "setting": "[1]", "value": "0.179 ± 0.003", "unit": "e"},
      {"measurement": "Reducing Power Before Gastrointestinal Digestion", "setting": "[1]; listed as PMYGGGMV–ferrous chelates", "value": 0.179},
      {"measurement": "dose dependence of blood pressure lowering effect", "setting": "[2]; oral, 50, 150 and 200 mg/kg body weight, p > 0.05", "value": "not dose-dependent"},
      {"measurement": "effect on diastolic and systolic blood pressures", "setting": "[2]; oral, 50–200 mg/kg body weight, from 1 h of dosing, tail cuff method, p < 0.05", "value": "apparently lowered the diastolic and systolic blood pressures"}
    ]}
  ]
}
